Laboratory results published in publication PMC11403733, “Asymmetric Dirhodium-Catalyzed Modification of Immunomodulatory Imide Drugs and Their Biological Assessment” (ACS Medicinal Chemistry Letters, 2024).
“And” between values parts separate entries of the source, which are not always exact repeats. Equal values may be shown once.

Key:
CRBN = target: T1, CRBN (Homo sapiens, UniProt Q96SW2); assay: Fluorescence Resonance Energy Transfer-Based Cereblon Binding Assay (CRBN HTRF); conditions: 0.5 nM 6×His-CRBN-DDB1, 20 nM tracer CC0782985, TR-FRET
T1 construct: (CRBN a.a. 1−442, DDB1 a.a); made in house
T1 sequence (Q96SW2 whole entry): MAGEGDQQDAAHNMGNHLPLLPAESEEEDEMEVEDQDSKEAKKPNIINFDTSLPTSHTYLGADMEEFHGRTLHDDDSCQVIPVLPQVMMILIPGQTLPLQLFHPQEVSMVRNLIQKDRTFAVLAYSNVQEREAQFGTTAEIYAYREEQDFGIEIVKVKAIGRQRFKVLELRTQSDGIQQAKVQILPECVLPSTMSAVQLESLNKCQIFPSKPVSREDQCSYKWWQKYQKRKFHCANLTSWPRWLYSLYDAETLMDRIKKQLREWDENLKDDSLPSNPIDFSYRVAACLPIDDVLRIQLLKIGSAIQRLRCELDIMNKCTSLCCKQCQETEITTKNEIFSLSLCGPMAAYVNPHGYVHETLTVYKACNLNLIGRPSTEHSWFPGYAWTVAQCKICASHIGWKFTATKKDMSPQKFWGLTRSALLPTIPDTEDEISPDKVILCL
T1 sequence (Q16531 whole entry partner): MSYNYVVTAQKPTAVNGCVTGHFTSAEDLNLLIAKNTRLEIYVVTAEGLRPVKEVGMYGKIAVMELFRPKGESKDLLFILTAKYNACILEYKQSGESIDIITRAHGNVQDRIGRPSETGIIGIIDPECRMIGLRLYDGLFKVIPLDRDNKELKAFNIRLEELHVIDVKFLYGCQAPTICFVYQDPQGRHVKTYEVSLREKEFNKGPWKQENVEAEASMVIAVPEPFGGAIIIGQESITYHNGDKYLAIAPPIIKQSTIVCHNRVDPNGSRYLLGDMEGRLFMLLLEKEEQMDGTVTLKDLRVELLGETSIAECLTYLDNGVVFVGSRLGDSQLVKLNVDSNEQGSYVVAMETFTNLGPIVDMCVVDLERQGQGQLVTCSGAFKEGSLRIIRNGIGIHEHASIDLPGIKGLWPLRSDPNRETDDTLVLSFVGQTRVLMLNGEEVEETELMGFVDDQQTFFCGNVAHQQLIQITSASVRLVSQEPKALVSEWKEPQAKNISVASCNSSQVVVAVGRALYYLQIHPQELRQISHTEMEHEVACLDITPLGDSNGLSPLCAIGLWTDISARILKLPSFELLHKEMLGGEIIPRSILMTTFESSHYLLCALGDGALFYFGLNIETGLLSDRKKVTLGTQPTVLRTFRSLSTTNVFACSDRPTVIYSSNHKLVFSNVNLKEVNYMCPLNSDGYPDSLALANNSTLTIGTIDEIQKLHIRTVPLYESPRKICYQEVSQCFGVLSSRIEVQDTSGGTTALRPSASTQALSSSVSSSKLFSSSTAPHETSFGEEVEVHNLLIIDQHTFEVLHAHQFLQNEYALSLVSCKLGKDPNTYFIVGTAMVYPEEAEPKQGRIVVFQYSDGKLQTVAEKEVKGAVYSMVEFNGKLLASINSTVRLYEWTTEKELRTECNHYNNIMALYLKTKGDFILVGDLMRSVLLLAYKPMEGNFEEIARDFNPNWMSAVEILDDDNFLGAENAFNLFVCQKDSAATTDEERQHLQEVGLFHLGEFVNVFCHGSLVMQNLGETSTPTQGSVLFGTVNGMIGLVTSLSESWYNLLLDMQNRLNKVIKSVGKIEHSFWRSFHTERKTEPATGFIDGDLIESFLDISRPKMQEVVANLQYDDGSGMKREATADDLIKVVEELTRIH
Description: (§1) Section 6: Assay Protocols
(§2) Fluorescence Resonance Energy Transfer-Based NSD@ PWWP Cereblon Binding Assay. […]
(§3) Compounds for testing were spotted into a 1536 well plate (Greiner Cat#782075). CRBN and Tracer solution were incubated in compound wells for 20 minutes. Detection mix containing Anti6xHis Tb Crytate (CisBio Cat#61HI2TLF) was then added to assay wells for a final 0.5x assay concentration of detection antibody (stock is provided at 400x). Plates were incubated for 30 minutes before being read on Pherastar FSX plate reader using TR-FRET module (Excitation 340nm, Emssion 615/665nm). ePL and HiBiT degradation assays
(§4) DF15 cells overexpressing ePL tagged GSPT1 (DF15/GSPT1 ePL OE) was used to monitor the degradation of GSPT1 induced by experimental compounds. MDS-L cells overexpressing ePL tagged CK1α and GSPT1G575N (MDS-L/CK1α ePL OE_ GSPT1G575N OE) was used to monitor the degradation of CK1α induced by experimental compounds. NCCIT cells with HiBiT tag knocked in at the c-terminus of SALL4 (NCCIT/SALL4-HiBiT KI) was used to monitor the degradation of SALL4 induced by experimental compounds. DF15 cells with HiBiT tag knocked in at the n-terminus of IKZF3 (DF15/HiBiT-IKZF3 KI) was used to monitor the degradation of AIOLOS (IKZF3) induced by experimental compounds. […]

SALL4 = target: T2, SALL4 (Homo sapiens, UniProt Q96SW2+Q9UJQ4); assay: HiBiT degradation assay, NCCIT/SALL4-HiBiT KI cells; type: cell-based; conditions: N ≥ 3; for EC50: degradation, 2 hr incubation, top conc 10 uM; for SALL4 Ymin: depth of degradation (100% = no reduction, 0% = complete degradation), 2 hr
T2 construct: endogenous in cells; host or cells: NCCIT (HiBiT knock-in)
T2 sequence (Q9UJQ4 whole entry): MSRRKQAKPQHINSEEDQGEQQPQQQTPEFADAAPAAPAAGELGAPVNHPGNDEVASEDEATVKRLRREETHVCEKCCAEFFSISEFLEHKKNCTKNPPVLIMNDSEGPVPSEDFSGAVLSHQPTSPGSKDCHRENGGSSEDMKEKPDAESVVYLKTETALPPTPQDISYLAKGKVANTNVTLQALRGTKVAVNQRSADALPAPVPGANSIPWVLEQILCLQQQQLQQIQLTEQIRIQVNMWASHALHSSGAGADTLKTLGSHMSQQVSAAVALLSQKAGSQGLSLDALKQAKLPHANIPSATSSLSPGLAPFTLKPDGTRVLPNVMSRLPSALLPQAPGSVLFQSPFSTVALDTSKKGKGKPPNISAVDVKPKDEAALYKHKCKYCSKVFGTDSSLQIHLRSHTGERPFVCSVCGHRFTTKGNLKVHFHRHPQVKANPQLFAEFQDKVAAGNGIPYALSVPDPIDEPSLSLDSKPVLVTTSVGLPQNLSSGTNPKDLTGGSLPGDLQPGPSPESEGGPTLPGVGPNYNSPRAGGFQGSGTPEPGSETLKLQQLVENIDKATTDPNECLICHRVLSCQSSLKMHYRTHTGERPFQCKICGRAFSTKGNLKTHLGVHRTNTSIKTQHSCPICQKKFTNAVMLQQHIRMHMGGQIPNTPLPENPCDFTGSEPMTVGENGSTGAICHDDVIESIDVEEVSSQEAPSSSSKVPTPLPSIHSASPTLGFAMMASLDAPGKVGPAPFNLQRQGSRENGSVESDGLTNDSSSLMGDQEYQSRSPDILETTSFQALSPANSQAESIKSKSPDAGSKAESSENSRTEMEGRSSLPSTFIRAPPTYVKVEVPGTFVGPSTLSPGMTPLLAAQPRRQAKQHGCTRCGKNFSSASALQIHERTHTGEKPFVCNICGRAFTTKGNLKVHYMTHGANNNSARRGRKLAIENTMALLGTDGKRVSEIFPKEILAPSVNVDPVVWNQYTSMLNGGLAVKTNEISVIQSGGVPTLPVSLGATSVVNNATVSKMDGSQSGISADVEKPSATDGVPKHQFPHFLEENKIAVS
T2 sequence (Q96SW2 whole entry): as the sequence (Q96SW2 whole entry) above
T2 sequence (Q16531 whole entry partner): as the sequence (Q16531 whole entry partner) above
Description: as §1, §2, §3, §4
(§5) The cell culture medium recipes, seeding densities and compound incubation time with cells are […]
(§6) Ta r g e t Cell line Cell culture medium Seeding Compound
(§7) (HI) FBS, 1mM sodium pyruvate, 25mM Hepes, 0.1% pluronic acid,
(§8) GSPT1G575N OE ng/mL of human recombinant IL3 […]
(§9) sodium pyruvate, 25mM Hepes, 0.1% pluronic acid, 1X NEAA
(§10) For all degradation assays, compounds were pre-spotted in a 153 6 well plate (Corning 3727) starting at 10uM with 3-fold serial dilution down 11 points in replicates using an Echo 650 series acoustic liquid handler. 5uL/well cells were seeded in the assay ready plate at the density and in […]
(§11) The final DMSO concentration in the cell culture was 0.25%. The plates were equilibrated at room temperature for 30 minutes before putting into a 37 °C CO2 incubator. After appropriate incubation period, plates were retrieved from the incubator and set at room temperature to equilibrate for 30 minutes, before adding ePL or HiBiT detection reagent. For ePL detection, the pre-prepared mixture of EA reagent, lysis buffer, and substrate reagent at ratio 1:1:4 from the DiscoverX InCELL Detection Kit (Eurofins 96-0079L) according to the manufacturer ’s recommendation was added 3ul/well into the plate. Plates were incubated in the dark for 1hr at room temperature before reading using a BMG PheraStar luminescence reader. For HiBiT detection, Nano-Glo HiBiT Lytic Reagent (Promega, N3050) prepared according to the manufacturer ’s recommendation was added 3 uL/well into the plate. Plates were incubated 30 minutes at room temperature in the dark before reading using a BMG PheraStar […]
(§12) To determine EC50 values for degradation, a four parameter logistic model (Sigmoidal Dose-Response Model) (FIT= (A+((B-A)/1+((C/x)^D)))) C is the inflection point (EC50), D is […] , A and B are the low and high limits of the fit respectively) was used to determine the compound’s EC50 value, which is the half maximum effective concentration. In the degradation assays, the Yconst of each compound was calculated by normalizing the lowest point of the fitted curve to the media only control, which is 0%, and the cells treated with DMSO control, which is 100%. All degradation curves were processed and evaluated using Dotmatics.
(§13) Section 7: Biological Data Tables

CK1α = target: T3, CK1α (Homo sapiens, UniProt P48729+Q96SW2); assay: ePL degradation assay, MDS-L/CK1α ePL OE_GSPT1G575N OE cells; type: cell-based; conditions: for EC50: degradation, 4 hr incubation, top conc 10 uM, N ≥ 3, read-out: CK1a EC50; for CK1a Ymin: depth of degradation (100% = no reduction, 0% = complete degradation), 4 hr, N ≥ 3
T3 construct: expressed in transfected cells; host or cells: MDS-L
T3 sequence (P48729 whole entry): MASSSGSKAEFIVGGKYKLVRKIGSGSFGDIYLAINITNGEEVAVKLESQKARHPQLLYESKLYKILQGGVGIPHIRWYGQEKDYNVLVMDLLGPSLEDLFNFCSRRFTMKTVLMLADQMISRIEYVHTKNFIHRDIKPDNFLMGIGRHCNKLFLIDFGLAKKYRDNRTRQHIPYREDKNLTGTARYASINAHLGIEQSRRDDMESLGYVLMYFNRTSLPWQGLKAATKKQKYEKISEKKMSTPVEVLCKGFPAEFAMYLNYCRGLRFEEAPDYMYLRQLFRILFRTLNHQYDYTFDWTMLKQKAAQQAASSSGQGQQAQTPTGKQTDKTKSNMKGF
T3 sequence (Q96SW2 whole entry): as the sequence (Q96SW2 whole entry) above
T3 sequence (Q16531 whole entry partner): as the sequence (Q16531 whole entry partner) above
Description: as §1, §2, §3, §4, §5, §6, §7, §8, §9, §10, §11, §12, §13

IKZF3 (Aiolos) = target: T4, IKZF3 (Aiolos) (Homo sapiens, UniProt Q96SW2+Q9UKT9); assay: HiBiT degradation assay, DF15/HiBiT-IKZF3 KI cells; type: cell-based; conditions: N ≥ 3; for EC50: degradation, 4 hr incubation, top conc 10 uM; for IKZF3 Ymin: depth of degradation (100% = no reduction of protein level, 0% = complete degradation), 4 hr
T4 construct: endogenous in cells; host or cells: DF15 (HiBiT knock-in)
T4 sequence (Q9UKT9 whole entry): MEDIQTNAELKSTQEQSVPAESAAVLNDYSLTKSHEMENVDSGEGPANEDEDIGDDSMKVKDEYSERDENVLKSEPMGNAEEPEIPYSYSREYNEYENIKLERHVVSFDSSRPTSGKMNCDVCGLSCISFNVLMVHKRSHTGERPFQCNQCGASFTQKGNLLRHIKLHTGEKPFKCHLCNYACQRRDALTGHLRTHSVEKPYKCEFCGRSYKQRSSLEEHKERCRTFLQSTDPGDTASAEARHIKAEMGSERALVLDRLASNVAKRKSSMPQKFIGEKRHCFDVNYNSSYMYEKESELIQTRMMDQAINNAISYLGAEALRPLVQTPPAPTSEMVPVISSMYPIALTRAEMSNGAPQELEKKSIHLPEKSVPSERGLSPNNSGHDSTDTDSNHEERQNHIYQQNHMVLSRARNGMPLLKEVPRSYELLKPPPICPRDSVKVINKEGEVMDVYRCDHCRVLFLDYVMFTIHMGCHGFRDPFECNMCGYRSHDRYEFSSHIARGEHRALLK
T4 sequence (Q96SW2 whole entry): as the sequence (Q96SW2 whole entry) above
T4 sequence (Q16531 whole entry partner): as the sequence (Q16531 whole entry partner) above
Description: as §1, §2, §3, §4, §5, §6, §7, §8, §9, §10, §11, §12, §13

GSPT1 = target: T5, GSPT1 (Homo sapiens, UniProt P15170+Q96SW2); assay: ePL degradation assay, DF15/GSPT1 ePL OE cells; type: cell-based; conditions: N ≥ 3; for EC50: degradation, 20 hr incubation, top conc 10 uM; for GSPT1 Ymin: depth of degradation (100% = no reduction, 0% = complete degradation), 20 hr
T5 construct: expressed in transfected cells; host or cells: DF15
T5 sequence (P15170 1-637 isoform P15170-3): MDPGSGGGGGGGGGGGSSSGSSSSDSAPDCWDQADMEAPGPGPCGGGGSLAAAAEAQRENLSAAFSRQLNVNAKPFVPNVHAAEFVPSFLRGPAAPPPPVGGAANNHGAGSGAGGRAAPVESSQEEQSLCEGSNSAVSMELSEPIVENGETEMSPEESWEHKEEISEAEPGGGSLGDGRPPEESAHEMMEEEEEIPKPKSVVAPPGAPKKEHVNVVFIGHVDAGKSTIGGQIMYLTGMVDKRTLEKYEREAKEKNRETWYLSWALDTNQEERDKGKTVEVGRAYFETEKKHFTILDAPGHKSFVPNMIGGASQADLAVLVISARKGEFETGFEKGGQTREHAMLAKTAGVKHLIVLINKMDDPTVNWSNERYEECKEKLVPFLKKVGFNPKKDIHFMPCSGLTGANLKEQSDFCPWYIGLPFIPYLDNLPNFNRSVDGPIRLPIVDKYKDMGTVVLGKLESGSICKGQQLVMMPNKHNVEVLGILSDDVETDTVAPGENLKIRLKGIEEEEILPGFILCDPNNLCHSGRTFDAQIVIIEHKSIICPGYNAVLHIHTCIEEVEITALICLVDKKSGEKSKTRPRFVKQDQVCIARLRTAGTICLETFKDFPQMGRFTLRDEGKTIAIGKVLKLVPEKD
T5 sequence (Q96SW2 whole entry): as the sequence (Q96SW2 whole entry) above
T5 sequence (Q16531 whole entry partner): as the sequence (Q16531 whole entry partner) above
Description: as §1, §2, §3, §4, §5, §6, §7, §8, §9, §10, §11, §12, §13

| SMILES | IC50 (CRBN) [µM] | EC50 (SALL4) [µM] | SALL4 Ymin (SALL4) [%] | EC50 (CK1α) [µM] | CK1a Ymin (CK1α) [%] | EC50 (IKZF3 (Aiolos)) [µM] | IKZF3 Ymin (IKZF3 (Aiolos)) [%] | EC50 (GSPT1) | GSPT1 Ymin (GSPT1) [%] |
| --- | --- | --- | --- | --- | --- | --- | --- | --- | --- |
| O=C1CCC(N2C(=O)c3cccc([C@@H]4C[C@]4(C(=O)OCC(Cl)(Cl)Cl)c4ccc(Br)cc4)c3C2=O)C(=O)N1 (some centres unmarked) [Compound 14a] | > 10 | > 10 | 91 ± 8.0 | > 10 | 92 ± 3.8 | > 10 | 89 ± 3.2 | > 10 µM | 91 ± 16 |
| O=C1CCC(N2Cc3c(cccc3[C@H]3C[C@@]3(C(=O)OCC(Cl)(Cl)Cl)c3ccc(Br)cc3)C2=O)C(=O)N1 (some centres unmarked) [Compound 13b] | 2.4 | > 10 | 97 ± 3.1 | > 10 | 90 ± 7.1 | > 10 | 97 ± 4.9 | > 10 µM | 99 ± 2.2 |
| O=C1CCC(N2C(=O)c3cccc(C4=C[C@]4(C(=O)OCC(Cl)(Cl)Cl)c4ccc(Br)cc4)c3C2=O)C(=O)N1 (some centres unmarked) [Compound 20a] | 4.6 | 0.56 ± 0.27 | 34 ± 7.4 | 1.5 ± 0.94 | 56 ± 14 | 0.9 ± 0.18 | 40 ± 2.2 | 4.3 ± 1.9 µM | 12 ± 13 |
| O=C1CCC(N2Cc3cccc(C4=C[C@@]4(C(=O)OCC(Cl)(Cl)Cl)c4ccc(Br)cc4)c3C2=O)C(=O)N1 (some centres unmarked) [Compound 24b] | 2.9 | > 10 | 97 ± 5.2 | > 10 | 93 ± 6.8 | > 10 | 93 ± 2.5 | > 10 µM | 80 ± 4.3 |
| O=C1CCC(N2Cc3ccc(C4=C[C@@]4(C(=O)OCC(Cl)(Cl)Cl)c4ccc(Br)cc4)cc3C2=O)C(=O)N1 (some centres unmarked) [Compound 23b] | 1.7 | > 10 | 91 ± 10 | > 10 | 95 ± 6.0 | > 10 | 81 ± 4.6 | > 10 µM | 88 ± 10 |
| O=C1CCC(N2Cc3ccc([C@@H]4C[C@]4(C(=O)OCC(Cl)(Cl)Cl)c4ccc(Br)cc4)cc3C2=O)C(=O)N1 (some centres unmarked) [Compound 17a] | 2.1 | > 10 | 97 ± 2.2 | > 10 | 98 ± 12 | > 10 | 95 ± 7.6 | > 10 µM | 95 ± 5.4 |
| O=C1CCC(N2C(=O)c3ccc([C@H]4C[C@@]4(C(=O)OCC(Cl)(Cl)Cl)c4ccc(Br)cc4)cc3C2=O)C(=O)N1 (some centres unmarked) [Compound 16b] | > 10 | 0.41 ± 0.16 | 60 ± 6.1 | > 10 | 85 ± 4.1 | > 10 | 97 ± 3.6 | > 10 µM and 3.1 µM |  |
